From patent US20240254118A1, “PRMT5 INHIBITORS AND USES THEREOF” (Gilead Sciences, Inc., priority 2022, published 2024)

How the values were obtained:
[1] = tested on: SDMA signal (PRMT5 inhibition) in HCT116 MTAP-deleted cells; experiment: Symmetric di-methyl arginine image-based high content screen assay (SDMA assay), HCT116 MTAP-deleted; type: cell-based; settings: SDMA assay; for EC50: Homo sapiens, HCT-116, 72 h, 3 days of treatment, cell line not given, taken as HCT116 MTAP-deleted, read-out: EC50 (SDMA assay); for EC50 selectivity (SDMA assay): taken as HCT116 WT versus MTAP-deleted
Procedure, shortened: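 Read-out: per-cell mean SDMA immunofluorescence (Alexa Fluor 488 secondary), cells segmented by DAPI on a high-content imager. Compound exposure in HCT116 MTAP-deleted cells lasted until fixation on Day 3; overnight 4° C primary anti-SDMA antibody staining.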

[2] = tested on: HCT116 MTAP-deleted cells; experiment: Cell viability assay (CellTiter-Glo, 7 days), HCT116 MTAP-deleted; settings: Homo sapiens, HCT-116, 168 h

Row | EC50 [1] | EC50 selectivity (SDMA assay) [1] | SMILES | CC50 [2]
1 | > 5 nM | 174 | Cn1ncc2c(N)nc3ccc(C(=O)N(Cc4ccc(C(F)(F)F)cn4)N4CCS(=O)(=O)CC4)cc3c21 [Example 138, 4-amino-N-(1,1-dioxo-1,4-thiazinan-4-yl)-1-methyl-N-[[5-(trifluoromethyl)-2-pyridyl]methyl]pyrazolo[4,3-c]quinoline-8-carboxamide] | > 1000 nM
2 | > 5 nM | 20 | Cn1ncc2c(N)nc3ccc(C(=O)N(Cc4cn5ccccc5n4)N4Cc5ccccc5C4=O)cc3c21 [Example 139, 4-amino-N-(imidazo[1,2-a]pyridin-2-ylmethyl)-1-methyl-N-(1-oxoisoindolin-2-yl)pyrazolo[4,3-c]quinoline-8-carboxamide] | < 100 nM
3 | < 1 nM | 456 | CN(C(=O)C12CC(C1)C2)N(Cc1ccc(Cl)cn1)C(=O)c1ccc2nc(N)c3cnn(C)c3c2c1 [Example 140, 4-amino-N′-(bicyclo[1.1.1]pentane-1-carbonyl)-N-((5-chloropyridin-2-yl)methyl)-N′,1-dimethyl-1H-pyrazolo[4,3-c]quinoline-8-carbohydrazide] | < 100 nM
4 | 1 to 5 nM | 58 | Cn1ncc2c(N)nc3cc(Cl)c(C(=O)N(Cc4ccc(C(F)(F)F)cn4)N4CCCC4=O)cc3c21 [Example 141, 4-amino-7-chloro-1-methyl-N-(2-oxopyrrolidin-1-yl)-N-[[5-(trifluoromethyl)-2-pyridyl]methyl]pyrazolo[4,3-c]quinoline-8-carboxamide] | < 100 nM
5 | < 1 nM | 32 | Cn1ncc2c(N)nc3cc(F)c(C(=O)N(Cc4ccc(C(F)(F)F)cn4)N4CCOCC4)cc3c21 [Example 142, 4-amino-7-fluoro-1-methyl-N-morpholino-N-((5-(trifluoromethyl)pyridin-2-yl)methyl)-1H-pyrazolo[4,3-c]quinoline-8-carboxamide] | < 100 nM
6 | 1 to 5 nM | 67 | Cn1ncc2c(N)nc3cc(Cl)c(C(=O)N(Cc4ccc(C(F)(F)F)cn4)N4CCCOC4=O)cc3c21 [Example 143, 4-amino-7-chloro-1-methyl-N-(2-oxo-1,3-oxazinan-3-yl)-N-[[5-(trifluoromethyl)-2-pyridyl]methyl]pyrazolo[4,3-c]quinoline-8-carboxamide] | < 100 nM
7 | 1 to 5 nM | 43 | Cn1ncc2c(N)nc3cc(F)c(C(=O)N(Cc4ccc(C(F)(F)F)cn4)N4CCCOC4=O)cc3c21 [Example 144, 4-amino-7-fluoro-1-methyl-N-(2-oxo-1,3-oxazinan-3-yl)-N-[[5-(trifluoromethyl)-2-pyridyl]methyl]pyrazolo[4,3-c]quinoline-8-carboxamide] | < 100 nM
8 | < 1 nM | 45 | Cn1ncc2c(N)nc3cc(F)c(C(=O)N(Cc4ccc(C(F)(F)F)cn4)N4CCOC4=O)cc3c21 [Example 145, 4-amino-7-fluoro-1-methyl-N-(2-oxooxazolidin-3-yl)-N-[[5-(trifluoromethyl)-2-pyridyl]methyl]pyrazolo[4,3-c]quinoline-8-carboxamide] | < 100 nM
9 | < 1 nM | 16 | CN(C(=O)C1CC1)N(Cc1ccc(C(F)(F)F)cn1)C(=O)c1cc2c(cc1F)nc(N)c1cnn(C)c12 [Example 146, 4-amino-N′-(cyclopropanecarbonyl)-7-fluoro-N′,1-dimethyl-N-[[5-(trifluoromethyl)-2-pyridyl]methyl]pyrazolo[4,3-c]quinoline-8-carbohydrazide] | < 100 nM
10 | < 1 nM | 16 | CC(=O)N(c1ccccn1)N(Cc1ccc(C(F)(F)F)cn1)C(=O)c1ccc2nc(N)c3cnn(C)c3c2c1 [Example 147, N′-acetyl-4-amino-1-methyl-N′-(2-pyridyl)-N-[[5-(trifluoromethyl)-2-pyridyl]methyl]pyrazolo[4,3-c]quinoline-8-carbohydrazide] | < 100 nM
11 | 1 to 5 nM | 66 | Cn1ncc2c(N)nc3cc(Cl)c(C(=O)N(Cc4ccc(C(F)(F)F)cn4)N4CCCCC4=O)cc3c21 [Example 148, 4-amino-7-chloro-1-methyl-N-(2-oxopiperidin-1-yl)-N-((5-(trifluoromethyl)pyridin-2-yl)methyl)-1H-pyrazolo[4,3-c]quinoline-8-carboxamide] | < 100 nM
12 | 1 to 5 nM | 18 | Cn1ncc2c(N)nc3cc(F)c(C(=O)N(Cc4ccc(C(F)(F)F)cn4)N4CCCCC4=O)cc3c21 [Example 149, 4-amino-7-fluoro-1-methyl-N-(2-oxopiperidin-1-yl)-N-((5-(trifluoromethyl)pyridin-2-yl)methyl)-1H-pyrazolo[4,3-c]quinoline-8-carboxamide] | < 100 nM
13 | 1 to 5 nM | 138 | Cn1ncc2c3cc(C(=O)N(Cc4ccc(C(F)(F)F)cn4)N4CCOC4=O)ccc3nc(N)c21 [Example 150, 4-amino-3-methyl-N-(2-oxooxazolidin-3-yl)-N-((5-(trifluoromethyl)pyridin-2-yl)methyl)-3H-pyrazolo[3,4-c]quinoline-8-carboxamide] | < 100 nM
14 | < 1 nM | 525 | Cn1ncc2c3cc(C(=O)N(Cc4ccc(C(F)(F)F)cn4)N4CCCC4=O)ccc3nc(N)c21 [Example 151, 4-amino-3-methyl-N-(2-oxopyrrolidin-1-yl)-N-((5-(trifluoromethyl)pyridin-2-yl)methyl)-3H-pyrazolo[3,4-c]quinoline-8-carboxamide] | < 100 nM
15 | 1 to 5 nM | 128 | CC(=O)N(C)N(Cc1ccc(C(F)(F)F)cn1)C(=O)c1ccc2nc(N)c3c(cnn3C)c2c1 [Example 152, N′-acetyl-4-amino-N′,3-dimethyl-N-((5-(trifluoromethyl)pyridin-2-yl)methyl)-3H-pyrazolo[3,4-c]quinoline-8-carbohydrazide] | 100 to 1000 nM
16 | 1 to 5 nM | 54 | CC(=O)N(C)N(Cc1ccc(C(F)(F)F)cc1F)C(=O)c1ccc2nc(N)c3c(cnn3C)c2c1 [Example 153, N′-acetyl-4-amino-N-(2-fluoro-4-(trifluoromethyl)benzyl)-N′,3-dimethyl-3H-pyrazolo[3,4-c]quinoline-8-carbohydrazide] | < 100 nM
17 | < 1 nM | 45 | CCN(C(C)=O)N(Cc1ccc(OC(F)F)cc1F)C(=O)c1cc2c(cc1F)nc(N)c1cnn(C)c12 [Example 154, N′-acetyl-4-amino-N-(4-(difluoromethoxy)-2-fluorobenzyl)-N′-ethyl-7-fluoro-1-methyl-1H-pyrazolo[4,3-c]quinoline-8-carbohydrazide] | < 100 nM
18 | < 1 nM | 94 | CN(C(=O)C1CC1)N(Cc1ccc(Cl)cc1F)C(=O)c1ccc2nc(N)c3cnn(C)c3c2c1 [Example 155, 4-amino-N-(4-chloro-2-fluorobenzyl)-N′-(cyclopropanecarbonyl)-N′,1-dimethyl-1H-pyrazolo[4,3-c]quinoline-8-carbohydrazide] | < 100 nM
19 | < 1 nM | 34 | CN(C(=O)N1CC(F)C1)N(Cc1ccc(C(F)(F)F)cn1)C(=O)c1ccc2nc(N)c3cnn(C)c3c2c1 [Example 156, 4-amino-N′-(3-fluoroazetidine-1-carbonyl)-N′,1-dimethyl-N-((5-(trifluoromethyl)pyridin-2-yl)methyl)-1H-pyrazolo[4,3-c]quinoline-8-carbohydrazide] | < 100 nM
20 | < 1 nM | 54 | CN(C(=O)N1CC(F)(F)C1)N(Cc1ccc(C(F)(F)F)cn1)C(=O)c1ccc2nc(N)c3cnn(C)c3c2c1 [Example 157, 4-amino-N′-(3,3-difluoroazetidine-1-carbonyl)-N′,1-dimethyl-N-((5-(trifluoromethyl)pyridin-2-yl)methyl)-1H-pyrazolo[4,3-c]quinoline-8-carbohydrazide] | < 100 nM
21 | < 1 nM | 4 | CN(C(=O)c1nccn1C)N(Cc1ccc(C(F)(F)F)cn1)C(=O)c1ccc2nc(N)c3cnn(C)c3c2c1 [Example 158, 4-amino-N′,1-dimethyl-N′-(1-methyl-1H-imidazole-2-carbonyl)-N-((5-(trifluoromethyl)pyridin-2-yl)methyl)-1H-pyrazolo[4,3-c]quinoline-8-carbohydrazide] | < 100 nM
22 | 1 to 5 nM | 10 | CNC(=O)c1ccc(-c2ccc(CN(C(=O)c3ccc4nc(N)c5cnn(C)c5c4c3)N3CCCCC3=O)nc2)cn1 [Example 160, 4-amino-1-methyl-N-((6′-(methylcarbamoyl)-[3,3′-bipyridin]-6-yl)methyl)-N-(2-oxopiperidin-1-yl)-1H-pyrazolo[4,3-c]quinoline-8-carboxamide] | < 100 nM

Row | SMILES | EC50 [1] | EC50 selectivity (SDMA assay) [1] | CC50 [2]
23 | Cn1ncc2c(N)nc3ccc(C(=O)N(Cc4ccc(C(F)(F)F)cn4)N4CCC5(CC5)C4=O)cc3c21 [Example 159, 4-amino-1-methyl-N-(4-oxo-5-azaspiro[2.4]heptan-5-yl)-N-((5-(trifluoromethyl)pyridin-2-yl)methyl)-1H-pyrazolo[4,3-c]quinoline-8-carboxamide] | < 1 nM | 69 | < 100 nM
